Results from US4015974A, “Amido phosphorothiolates” (priority 1972, dated 1977).

Tests used:
Assay type in all cases: in vivo
[1] = system: rice stem borer (Chilo suppressalis); experiment: Lethal effect on rice stem borer (Table 6); conditions: 50 % emulsifiable concentrate, 1000 fold dilute solution, 4 days after application
Excerpt: Eggs just before hatch of the rice stem borer were applied in a ratio of 100/pot near the root of rice plants grown up into the tillering stage in an […] Wagner's pot. After eggs were hatched and the larvae entered into stems of rice plants, an 1000 fold dilute solution of each 50 % emulsifiable concentrates of the present compounds was applied by means of a turn table.

[2] = system: barnyard grass (Echinochloa crus-galli); experiment: Pre-emergence application, herbicidal effect on barnyard grass (Table 1); design: key: 0: not damaged; 5: completely killed; conditions: 20 days after application, score 0-5
How it was run: (§1)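 Compounds, formulated as water-diluted wettable powder, were applied to the soil surface after sowing and covering the seeds in pots of about 10 cm. Effects were rated on a 0 (no damage) to 5 (complete kill) scale after 20 days of greenhouse growth.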

[3] = system: large crabgrass (Digitaria sanguinalis); experiment: Pre-emergence application, herbicidal effect on large crabgrass (Table 1); design: key: 0: not damaged; 5: completely killed; conditions: 20 days after application, score 0-5
How it was run: as §1

[4] = system: radish; experiment: Pre-emergence application, herbicidal effect on radish (Table 1); design: key: 0: not damaged; 5: completely killed; conditions: 20 days after application, score 0-5
How it was run: as §1

[5] = system: redroot pigweed (Amaranthus retroflexus); experiment: Pre-emergence application, herbicidal effect on redroot pigweed (Table 1); design: key: 0: not damaged; 5: completely killed; conditions: 20 days after application, score 0-5
How it was run: as §1

[6] = system: common purslane (Portulaca oleracea); experiment: Pre-emergence application, herbicidal effect on common purslane (Table 1); design: key: 0: not damaged; 5: completely killed; conditions: 20 days after application, score 0-5
How it was run: as §1

[7] = system: common lambsquarter (Chenopodium album); experiment: Pre-emergence application, herbicidal effect on common lambsquarter (Table 1); design: key: 0: not damaged; 5: completely killed; conditions: 20 days after application, score 0-5
How it was run: as §1

[8] = system: rice; experiment: Water application, phytotoxicity on rice (Table 2); design: key: 0: no effect; 1: very slightly affected; 2: slightly affected; 3: moderately affected; 4: considerably affected; 5: completely killed; conditions: 25 days, score 0-5
How it was run: (§2)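 Ratings on a 0–5 scale taken 25 days post-treatment for rice injury, barnyard grass, and naturally emerging monochoria, false pimpernel and toothcup. Compounds as wettable powder went onto waterlogged paddy soil holding rice seedlings transplanted at 3 leaves and barnyard grass seed.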

[9] = system: barnyard grass (Echinochloa crus-galli); experiment: Water application, herbicidal effect on barnyard grass (Table 2); design: key: 0: not damaged; 5: completely killed; conditions: 25 days, score 0-5
How it was run: as §2

[10] = system: broad-leaved weeds, e.g., monochoria, false pimpernel and toothcup; experiment: Water application, herbicidal effect on broad-leaved weeds (Table 2); design: key: 0: not damaged; 5: completely killed; conditions: 25 days, score 0-5
How it was run: as §2

[11] = system: barnyard grass (Echinochloa crus-galli); experiment: Water application, herbicidal effect on barnyard grass (Table 2); design: key: 0: no effect; 1: very slightly affected; 2: slightly affected; 3: moderately affected; 4: considerably affected; 5: completely killed; conditions: 10 g/a, 25 days, score 0-5
Excerpt: Wagner pots of 14 cm. in diameter, which had been packed with 1.5 kg. of paddy field soil, were brought into the state of paddy fields. To the pots were transplanted rice seedlings at the 3-leave stage. Further, seeds of barnyard grass (Echinochloa crus-galli) were sowed in the pots and required amounts of test compounds were applied to the soil under water lodged condition. 25 days after application, the degrees of herbicidal activity and phytotoxity were investigated on above-mentioned plants which had been transplanted and sowed, and on broad-leaved weeds, e.g., monochoria (Monochoria viaginalis Presl.), false pimpernel (Linderna pyxidaria) and toothcup (Rotala indica Koehue), which had been spontaneously germinated. The test compounds were used in the form of wettable powder. The herbicidal effects and the phytotoxity were evaluated as follows by the numerals ranging from 0 to 5.

| Structure (SMILES) | Mortality [1] [%] | Herbicidal effect, barnyard grass ([2]; 10 g./a.) | Herbicidal effect, barnyard grass ([2]; 20 g./a.) | Herbicidal effect, barnyard grass ([2]; 40 g./a.) | Herbicidal effect, large crabgrass ([3]; 10 g./a.) | Herbicidal effect, large crabgrass ([3]; 20 g./a.) | Herbicidal effect, large crabgrass ([3]; 40 g./a.) | Herbicidal effect, radish ([4]; 10 g./a.) | Herbicidal effect, radish ([4]; 20 g./a.) | Herbicidal effect, radish ([4]; 40 g./a.) | Herbicidal effect, redroot pigweed ([5]; 10 g./a.) | Herbicidal effect, redroot pigweed ([5]; 20 g./a.) | Herbicidal effect, redroot pigweed ([5]; 40 g./a.) | Herbicidal effect, common purslane ([6]; 10 g./a.) | Herbicidal effect, common purslane ([6]; 20 g./a.) | Herbicidal effect, common purslane ([6]; 40 g./a.) | Herbicidal effect, common lambsquarter ([7]; 10 g./a.) | Herbicidal effect, common lambsquarter ([7]; 20 g./a.) | Herbicidal effect, common lambsquarter ([7]; 40 g./a.) | Phytotoxicity on rice ([8]; 10 g/a) | further results |
| --- | --- | --- | --- | --- | --- | --- | --- | --- | --- | --- | --- | --- | --- | --- | --- | --- | --- | --- | --- | --- | --- |
| C=C(C)CSP(=O)(OCC)SCC(=O)N1CCCCC1C (centres unmarked) [Compound 35] | 95.0 |  |  |  |  |  |  |  |  |  |  |  |  |  |  |  |  |  |  |  |  |
| CCOP(=O)(SCCc1ccccc1)SCC(=O)N1CCCCC1C (centres unmarked) [Compound 63] |  | 5 | 5 | 5 | 4 | 5 | 5 | 0 | 0 | 0 | 4 | 5 | 5 | 4 | 5 | 5 | 4 | 4 | 5 | 0 | Phytotoxicity on rice ([8]; 20 g/a): 0; Phytotoxicity on rice ([8]; 40 g/a): 0; Herbicidal effects, barnyard grass ([9]; 20 g/a): 5; Herbicidal effects, barnyard grass ([9]; 40 g/a): 5; Herbicidal effects, broad-leaved weeds ([10]; 10 g/a): 5; Herbicidal effects, broad-leaved weeds ([10]; 20 g/a): 5; Herbicidal effects, broad-leaved weeds ([10]; 40 g/a): 5; Herbicidal effects, barnyard grass [11]: 4 |
| CCOP(=O)(SCC(=O)N1CCCCC1C)SCC(C)c1ccccc1 (centres unmarked) [Compound 65] |  | 5 | 5 | 5 | 5 | 5 | 5 | 0 | 0 | 0 | 4 | 4 | 5 | 4 | 4 | 5 | 4 | 4 | 5 | 0 | Phytotoxicity on rice ([8]; 20 g/a): 0; Phytotoxicity on rice ([8]; 40 g/a): 0; Herbicidal effects, barnyard grass ([9]; 20 g/a): 5; Herbicidal effects, barnyard grass ([9]; 40 g/a): 5; Herbicidal effects, broad-leaved weeds ([10]; 10 g/a): 5; Herbicidal effects, broad-leaved weeds ([10]; 20 g/a): 5; Herbicidal effects, broad-leaved weeds ([10]; 40 g/a): 5; Herbicidal effects, barnyard grass [11]: 4 |
| CCOC(=O)CC(SP(=S)(OC)OC)C(=O)OCC (centres unmarked) [Malathion, reference compound] | 41.3 |  |  |  |  |  |  |  |  |  |  |  |  |  |  |  |  |  |  |  |  |
